Data on twelve compounds can be found in ChEMBL document CHEMBL1201862, “PubChem BioAssay data set” (2004).

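Dose response: 5 concentrations. Exposure: 48 h. Format: 96-well plates. Endpoint: linear interpolation; highest concentration if not reached. GI50 marks 50% less growth.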 Active and inactive are the calls of the source. Cut-off read from the data, not from the text of the source: active = GI50 up to about 1.1 µM and inactive = higher. Bounds are passed on as bounds.

Common to all, as to assay: NCI anticancer screen, dose series, 48 h
For test [1], the system named is SF-539.
Test [2] relates to T47D.
Test [3] deals with MCF7.
Test [4] has as its system HOP-62.
For test [5], the system named is OVCAR-8.
Test [6] relates to PC-3.
The test system of test [7] is MDA-MB-435.
Test [8] has as its system A498.
Test [9] has as its system HT-29.
For test [10], the system named is NCI-H23.
Test [11] concerns HCT-15.
Test [12] relates to M14.
Test [13] deals with OVCAR-3.
The test system of test [14] is NCI-H460.
The subject of test [15] is SNB-19.
For test [16], the system named is HCT-116.
The test system of test [17] is SK-MEL-28.
The test system of test [18] is NCI-H226.

Consider `COc1ccc2nc(NCN3C(=O)c4ccccc4C3=O)sc2c1`, for which the GI50 in test [1], in test [2], in [3], in test [4], in test [5] and in [6] was > 100 µM (inactive) in each case. The GI50 in test [7] is > 100 µM (inactive); in test [8], > 100 µM (inactive); in [9], > 100 µM (inactive); in test [10] it was > 100 µM (inactive); in test [11] it was over 100 µM; in test [12], > 100 µM (inactive). The GI50 in [13], in test [14], in test [15], in test [16] and in test [17] was > 100 µM (inactive) throughout.
With `CCOC(=O)C1(C#N)C2(C#N)C(N)=NC(ON=C(C)C)(ON=C(C)C)C12C#N` (centres undefined), the GI50 in test [18], in test [2], in test [3], in test [4], in test [5] and in [6] was > 100 µM (inactive) each time. The GI50 is > 100 µM (inactive) in test [7]; > 100 µM (inactive) in test [8]; > 100 µM (inactive) in test [9]; > 100 µM (inactive) in test [10]; over 100 µM in test [11]; > 100 µM (inactive) in test [12]. Also, the GI50 in test [14], in test [15], in test [16] and in test [17] was > 100 µM (inactive) throughout.
Consider `O=C1NC(=O)c2ccc([N+](=O)[O-])c3cccc1c23`, for which the GI50 in test [1] was 17.9 µM (inactive); in [18], 14.3 µM (inactive); in test [2], 18.6 µM (inactive); in test [3] it was 11.2 µM (inactive); in test [4] it was 20 µM (inactive); in test [5], 12.6 µM (inactive). The GI50 in test [6] was 17.4 µM (inactive); in test [7], 16.4 µM (inactive); in [8], 13.2 µM (inactive); in test [9], 16 µM (inactive); in test [10] it was 17.1 µM (inactive); in test [11], 5.31 µM. In addition, the GI50 in [12] is 14.8 µM (inactive); in test [14], 11.5 µM (inactive); in [15], 19.5 µM (inactive); in [16], 11.7 µM (inactive); in test [17] it was 20.2 µM (inactive).
With `C/C1=C/C(C)CC(C)OC(=O)C(C)NC(=O)C(Cc2ccc(O)c(I)c2)N(C)C(=O)CNC(=O)C(C)C1` (centres undefined), the GI50 is < 0.01 µM (active) in test [1]; 0.229 µM (active) in test [2]; 0.125 µM (active) in test [3]; < 0.01 µM (active) in [4]; 0.0306 µM (active) in [5]; < 0.01 µM (active) in test [6]. Also, the GI50 in [7] was < 0.01 µM (active); in [8], < 0.01 µM (active); in [9] it was < 0.01 µM (active); in test [10], 0.409 µM (active); in test [11], under 0.0121 µM; in test [12] it was 0.0102 µM (active). Moreover, the GI50 in [13] is < 0.01 µM (active); in test [14] it was < 0.01 µM (active); in test [15], 2.42 µM (inactive); in test [16], < 0.01 µM (active); in [17], 0.105 µM (active).
With `CC(=O)OCC1OC(N2C(=O)NC(=O)C3C=C4CCCCC4=CC32)CC1OC(C)=O` (centres undefined), the GI50 in test [1], in test [18], in test [2], in test [3], in test [4] and in test [5] was > 100 µM (inactive) in each case. For the same compound, the GI50 is > 100 µM (inactive) in test [6]; > 100 µM (inactive) in test [7]; > 100 µM (inactive) in test [8]; > 100 µM (inactive) in test [9]; over 100 µM in test [11]; > 100 µM (inactive) in test [12]. Further, the GI50 in [13], in test [14], in test [15], in test [16] and in test [17] was > 100 µM (inactive) throughout.
As to `COc1cc2c(cc1OC)C1=CCC(c3ccccc3)[N+]1(C)CC2` (centres undefined), the GI50 in test [1], in test [18], in test [2], in test [3], in [5] and in test [6] was > 100 µM (inactive) in each case. Moreover, the GI50 in test [7] was > 100 µM (inactive); in test [8] it was > 100 µM (inactive); in test [9] it was > 100 µM (inactive); in test [10], > 100 µM (inactive); in test [11], over 100 µM; in [12] it was > 100 µM (inactive). Moreover, the GI50 in test [13], in test [14], in [15], in test [16] and in test [17] was > 100 µM (inactive) each time.
As to `CC1=C(C(=O)Nc2cccc3c2C(=O)NC3=O)CC(C(=O)Nc2cccc3c2C(=O)NC3=O)=C(C)N1`, the GI50 in [1], in test [2], in [3], in test [4], in test [6] and in test [7] was > 100 µM (inactive) each time. Also, the GI50 in [8] is > 100 µM (inactive); in [10] it was > 100 µM (inactive); in test [11], over 100 µM; in test [12], > 100 µM (inactive); in test [13], > 100 µM (inactive); in test [14], > 100 µM (inactive). Moreover, the GI50 in test [15], in test [16] and in test [17] was > 100 µM (inactive) in each case.
Turning to `Nn1c(SCC(=O)NCc2ccccc2)nc2ccccc2c1=O`, the GI50 in test [1] is > 100 µM (inactive); in [18], 79.1 µM (inactive); in test [2], > 100 µM (inactive); in test [3] it was 52.1 µM (inactive); in test [5] it was 40.6 µM (inactive); in test [6], 54.7 µM (inactive). The GI50 was 45.8 µM (inactive) in test [7]; 61.2 µM (inactive) in [8]; 45.4 µM (inactive) in [9]; 82.8 µM (inactive) in [10]; 67.8 µM in test [11]; 36.6 µM (inactive) in test [12]. Besides, the GI50 is 32.3 µM (inactive) in test [13]; 46.3 µM (inactive) in test [14]; 67 µM (inactive) in test [15]; 29.4 µM (inactive) in test [16]; 92.5 µM (inactive) in test [17].
As for `CCOP(=O)(OCC)[C@H]1OC(C)(C)O[C@@H]1CO`, the GI50 in [1], in [2], in test [3], in test [4], in test [5] and in test [6] was > 100 µM (inactive) in each case. Also, the GI50 in test [7] is > 100 µM (inactive); in [8], > 100 µM (inactive); in test [9], > 100 µM (inactive); in [10] it was > 100 µM (inactive); in [11], over 100 µM; in [12], > 100 µM (inactive). Further, the GI50 in test [13], in test [14], in test [15], in test [16] and in test [17] was > 100 µM (inactive) each time.
As to `COc1ccc(C2CC(=O)CC(c3ccc(OC)cc3)C23C(=O)NC(=O)NC3=O)cc1` (centres undefined), the GI50 in [1] was > 100 µM (inactive); in test [18], 35.2 µM (inactive); in [2] it was > 10 µM (inactive); in [3], 25.1 µM (inactive); in [4], 13.8 µM (inactive); in test [5] it was 32.2 µM (inactive). In addition, the GI50 in test [6] was 33.9 µM (inactive); in test [7] it was 22.7 µM (inactive); in test [9] it was 33.2 µM (inactive); in test [10], 23.4 µM (inactive); in test [11], 67.8 µM; in test [12], 52.5 µM (inactive). The GI50 is 19.3 µM (inactive) in [13]; 35.8 µM (inactive) in [14]; 35.3 µM (inactive) in test [15]; 27.4 µM (inactive) in [16]; 17.2 µM (inactive) in test [17].
Take `COc1cc(/C=C2\C[C@H]3[C@@H]4CCc5cc(OCCN6CCCC6)ccc5[C@H]4CC[C@]3(C)C2=O)cc(OC)c1OC`: the GI50 in test [1] is 1.61 µM (inactive); in test [18], 1.97 µM (inactive); in test [2], 1.95 µM (inactive); in test [3], 1.65 µM (inactive); in [4], 1.77 µM (inactive); in [5] it was 1.63 µM (inactive). In addition, the GI50 is 1.73 µM (inactive) in test [6]; 1.61 µM (inactive) in test [7]; 1.78 µM (inactive) in test [8]; 2.41 µM (inactive) in test [10]; 1.68 µM in test [11]; 1.67 µM (inactive) in test [12]. Besides, the GI50 in test [14] is 1.76 µM (inactive); in test [15], 2.3 µM (inactive); in test [16], 1.54 µM (inactive).
For the compound `COc1cc(C=O)ccc1O` [VANILLIN], the GI50 in test [1], in test [18], in test [2], in test [3], in test [4] and in [5] was > 100 µM (inactive) throughout. The GI50 in [6] was > 100 µM (inactive); in test [7] it was > 100 µM (inactive); in test [9], > 100 µM (inactive); in test [10], > 100 µM (inactive); in test [11], over 100 µM; in test [12], > 100 µM (inactive). In addition, the GI50 in test [13], in test [14], in test [15], in test [16] and in test [17] was > 100 µM (inactive) each time.
